Assay results taken from ChEMBL document CHEMBL3352660, “Design, synthesis and pharmacological evaluation of novel polycyclic heteroarene ethers as PDE10A inhibitors: part II” (Bioorg Med Chem Lett, 2014).
pIC50: −log10 of the molar value.

Experiments:
[1] = target: T1, cAMP and cAMP-inhibited cGMP 3',5'-cyclic phosphodiesterase 10A (Homo sapiens, UniProt Q9Y233); assay: Inhibition of human recombinant GST-tagged PDE10A using [3H]-cAMP as substrate at 1 uM after 30 mins by scintillation proximity assay
T1 sequence (Q9Y233 whole entry): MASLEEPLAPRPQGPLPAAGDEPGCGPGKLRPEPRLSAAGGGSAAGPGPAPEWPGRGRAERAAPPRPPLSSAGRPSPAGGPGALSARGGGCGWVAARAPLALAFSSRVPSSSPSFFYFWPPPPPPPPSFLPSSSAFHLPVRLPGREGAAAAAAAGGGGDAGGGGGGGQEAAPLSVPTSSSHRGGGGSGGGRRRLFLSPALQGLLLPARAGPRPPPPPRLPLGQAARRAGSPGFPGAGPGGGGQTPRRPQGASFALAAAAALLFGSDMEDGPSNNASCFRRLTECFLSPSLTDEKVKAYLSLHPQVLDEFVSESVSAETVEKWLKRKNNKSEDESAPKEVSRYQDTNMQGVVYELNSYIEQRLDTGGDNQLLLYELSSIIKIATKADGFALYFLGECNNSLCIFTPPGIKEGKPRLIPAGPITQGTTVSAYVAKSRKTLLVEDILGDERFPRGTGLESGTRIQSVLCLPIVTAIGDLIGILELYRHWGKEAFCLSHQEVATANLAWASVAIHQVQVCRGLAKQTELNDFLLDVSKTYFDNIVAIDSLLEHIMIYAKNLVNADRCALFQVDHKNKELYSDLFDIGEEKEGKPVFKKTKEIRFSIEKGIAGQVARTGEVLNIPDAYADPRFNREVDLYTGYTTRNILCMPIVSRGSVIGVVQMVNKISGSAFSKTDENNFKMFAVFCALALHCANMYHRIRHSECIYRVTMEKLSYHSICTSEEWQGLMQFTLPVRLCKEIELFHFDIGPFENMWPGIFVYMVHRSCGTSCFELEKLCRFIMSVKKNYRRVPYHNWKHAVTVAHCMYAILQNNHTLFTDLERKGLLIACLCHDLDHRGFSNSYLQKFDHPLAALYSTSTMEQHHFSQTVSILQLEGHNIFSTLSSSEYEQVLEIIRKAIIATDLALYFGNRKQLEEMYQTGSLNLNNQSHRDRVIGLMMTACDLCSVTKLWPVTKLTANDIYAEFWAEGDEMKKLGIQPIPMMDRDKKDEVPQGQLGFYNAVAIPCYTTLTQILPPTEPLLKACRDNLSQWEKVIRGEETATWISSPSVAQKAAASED

[2] = target: T1, cAMP and cAMP-inhibited cGMP 3',5'-cyclic phosphodiesterase 10A; assay: Inhibition of human recombinant GST-tagged PDE10A using [3H]-cAMP as substrate after 30 mins by scintillation proximity assay
[3] = target: T2, cAMP and cAMP-inhibited cGMP 3',5'-cyclic phosphodiesterase 10A (Rattus norvegicus, UniProt Q9QYJ6); assay: Inhibition of rat recombinant GST-tagged PDE10A using [3H]-cAMP as substrate by scintillation proximity assay
T2 sequence (Q9QYJ6 whole entry): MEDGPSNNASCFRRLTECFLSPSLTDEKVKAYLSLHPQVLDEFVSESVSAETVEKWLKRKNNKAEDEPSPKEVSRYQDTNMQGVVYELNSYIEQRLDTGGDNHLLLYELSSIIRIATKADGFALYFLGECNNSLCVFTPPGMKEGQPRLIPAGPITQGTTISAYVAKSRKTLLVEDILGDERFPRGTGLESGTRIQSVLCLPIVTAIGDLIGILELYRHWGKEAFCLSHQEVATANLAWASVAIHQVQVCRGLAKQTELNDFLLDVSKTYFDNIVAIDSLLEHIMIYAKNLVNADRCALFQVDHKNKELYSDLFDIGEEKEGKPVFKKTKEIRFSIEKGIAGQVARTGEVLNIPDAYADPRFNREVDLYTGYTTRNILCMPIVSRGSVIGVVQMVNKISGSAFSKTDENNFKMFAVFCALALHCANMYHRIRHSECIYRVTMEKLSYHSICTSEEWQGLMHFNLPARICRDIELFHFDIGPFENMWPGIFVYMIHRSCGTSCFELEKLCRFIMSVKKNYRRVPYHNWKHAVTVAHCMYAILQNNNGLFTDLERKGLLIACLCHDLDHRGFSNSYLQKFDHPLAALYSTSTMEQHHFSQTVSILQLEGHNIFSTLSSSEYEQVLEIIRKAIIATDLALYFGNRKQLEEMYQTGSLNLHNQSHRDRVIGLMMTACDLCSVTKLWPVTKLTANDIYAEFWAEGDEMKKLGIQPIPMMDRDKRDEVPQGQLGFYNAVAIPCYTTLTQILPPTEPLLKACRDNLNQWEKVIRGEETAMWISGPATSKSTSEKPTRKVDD

[4] = target: T3, cAMP and cAMP-inhibited cGMP 3',5'-cyclic phosphodiesterase 10A (Mus musculus, UniProt Q8CA95); assay: Inhibition of mouse recombinant GST-tagged PDE10A using [3H]-cAMP as substrate after 30 mins by scintillation proximity assay
T3 sequence (Q8CA95 whole entry): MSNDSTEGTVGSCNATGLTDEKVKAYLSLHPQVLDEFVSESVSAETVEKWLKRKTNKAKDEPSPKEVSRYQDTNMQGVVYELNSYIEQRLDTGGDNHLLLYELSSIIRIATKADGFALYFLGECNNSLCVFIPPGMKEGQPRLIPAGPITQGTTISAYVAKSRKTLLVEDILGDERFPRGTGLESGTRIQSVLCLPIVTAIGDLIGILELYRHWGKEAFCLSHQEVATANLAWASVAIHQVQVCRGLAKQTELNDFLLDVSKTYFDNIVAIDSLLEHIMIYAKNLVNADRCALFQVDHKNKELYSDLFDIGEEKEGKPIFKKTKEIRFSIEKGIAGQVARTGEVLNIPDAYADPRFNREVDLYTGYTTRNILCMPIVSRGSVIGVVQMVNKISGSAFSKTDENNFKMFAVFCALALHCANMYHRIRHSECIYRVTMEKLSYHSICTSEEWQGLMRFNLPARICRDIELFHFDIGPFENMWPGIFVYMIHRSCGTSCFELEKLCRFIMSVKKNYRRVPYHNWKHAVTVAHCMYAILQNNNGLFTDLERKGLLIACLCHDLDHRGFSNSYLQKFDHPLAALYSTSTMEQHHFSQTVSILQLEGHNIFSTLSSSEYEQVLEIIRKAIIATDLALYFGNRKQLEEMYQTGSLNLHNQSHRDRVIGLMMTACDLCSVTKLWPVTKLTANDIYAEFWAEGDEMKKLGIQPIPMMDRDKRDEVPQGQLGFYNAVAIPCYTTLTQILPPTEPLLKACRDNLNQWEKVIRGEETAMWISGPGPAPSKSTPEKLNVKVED

[5] = target: cGMP-dependent 3',5'-cyclic phosphodiesterase (Homo sapiens) (UniProt O00408); assay: Inhibition of human recombinant PDE2A using cAMP as substrate at 1 uM after 30 mins by HTRF method
Sequence of cGMP-dependent 3',5'-cyclic phosphodiesterase (Homo sapiens) (O00408 whole entry): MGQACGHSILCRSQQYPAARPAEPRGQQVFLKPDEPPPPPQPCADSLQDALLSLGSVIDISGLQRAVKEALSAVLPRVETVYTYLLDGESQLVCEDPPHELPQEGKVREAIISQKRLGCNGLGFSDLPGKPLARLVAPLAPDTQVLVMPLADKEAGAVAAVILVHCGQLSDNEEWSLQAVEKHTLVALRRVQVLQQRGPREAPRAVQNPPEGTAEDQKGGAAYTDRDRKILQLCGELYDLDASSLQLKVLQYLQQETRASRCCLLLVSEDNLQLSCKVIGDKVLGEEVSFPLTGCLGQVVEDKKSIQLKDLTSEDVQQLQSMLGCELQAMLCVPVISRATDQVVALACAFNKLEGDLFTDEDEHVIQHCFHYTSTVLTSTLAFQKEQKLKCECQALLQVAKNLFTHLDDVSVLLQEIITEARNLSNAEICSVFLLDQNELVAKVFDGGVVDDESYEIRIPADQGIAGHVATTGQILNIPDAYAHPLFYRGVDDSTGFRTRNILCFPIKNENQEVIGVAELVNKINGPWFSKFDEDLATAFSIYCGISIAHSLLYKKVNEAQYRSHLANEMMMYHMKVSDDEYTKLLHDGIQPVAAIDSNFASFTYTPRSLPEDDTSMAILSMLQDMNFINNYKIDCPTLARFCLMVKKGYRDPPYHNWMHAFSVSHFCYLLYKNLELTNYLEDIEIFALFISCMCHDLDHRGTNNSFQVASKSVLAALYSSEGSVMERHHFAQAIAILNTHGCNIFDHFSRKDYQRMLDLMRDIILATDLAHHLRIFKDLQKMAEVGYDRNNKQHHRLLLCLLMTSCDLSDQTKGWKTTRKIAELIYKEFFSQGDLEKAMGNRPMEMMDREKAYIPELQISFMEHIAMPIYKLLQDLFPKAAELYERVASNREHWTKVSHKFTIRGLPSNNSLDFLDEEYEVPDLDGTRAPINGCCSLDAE

[6] = target: cGMP-dependent 3',5'-cyclic phosphodiesterase (Homo sapiens) (UniProt O00408); assay: Inhibition of human recombinant PDE2A using cAMP as substrate at 10 uM after 30 mins by HTRF method
[7] = target: cGMP-inhibited 3',5'-cyclic phosphodiesterase 3A (Homo sapiens) (UniProt Q14432); assay: Inhibition of human recombinant PDE3A using cAMP as substrate at 1 uM after 30 mins by HTRF method
Sequence of cGMP-inhibited 3',5'-cyclic phosphodiesterase 3A (Homo sapiens) (Q14432 whole entry): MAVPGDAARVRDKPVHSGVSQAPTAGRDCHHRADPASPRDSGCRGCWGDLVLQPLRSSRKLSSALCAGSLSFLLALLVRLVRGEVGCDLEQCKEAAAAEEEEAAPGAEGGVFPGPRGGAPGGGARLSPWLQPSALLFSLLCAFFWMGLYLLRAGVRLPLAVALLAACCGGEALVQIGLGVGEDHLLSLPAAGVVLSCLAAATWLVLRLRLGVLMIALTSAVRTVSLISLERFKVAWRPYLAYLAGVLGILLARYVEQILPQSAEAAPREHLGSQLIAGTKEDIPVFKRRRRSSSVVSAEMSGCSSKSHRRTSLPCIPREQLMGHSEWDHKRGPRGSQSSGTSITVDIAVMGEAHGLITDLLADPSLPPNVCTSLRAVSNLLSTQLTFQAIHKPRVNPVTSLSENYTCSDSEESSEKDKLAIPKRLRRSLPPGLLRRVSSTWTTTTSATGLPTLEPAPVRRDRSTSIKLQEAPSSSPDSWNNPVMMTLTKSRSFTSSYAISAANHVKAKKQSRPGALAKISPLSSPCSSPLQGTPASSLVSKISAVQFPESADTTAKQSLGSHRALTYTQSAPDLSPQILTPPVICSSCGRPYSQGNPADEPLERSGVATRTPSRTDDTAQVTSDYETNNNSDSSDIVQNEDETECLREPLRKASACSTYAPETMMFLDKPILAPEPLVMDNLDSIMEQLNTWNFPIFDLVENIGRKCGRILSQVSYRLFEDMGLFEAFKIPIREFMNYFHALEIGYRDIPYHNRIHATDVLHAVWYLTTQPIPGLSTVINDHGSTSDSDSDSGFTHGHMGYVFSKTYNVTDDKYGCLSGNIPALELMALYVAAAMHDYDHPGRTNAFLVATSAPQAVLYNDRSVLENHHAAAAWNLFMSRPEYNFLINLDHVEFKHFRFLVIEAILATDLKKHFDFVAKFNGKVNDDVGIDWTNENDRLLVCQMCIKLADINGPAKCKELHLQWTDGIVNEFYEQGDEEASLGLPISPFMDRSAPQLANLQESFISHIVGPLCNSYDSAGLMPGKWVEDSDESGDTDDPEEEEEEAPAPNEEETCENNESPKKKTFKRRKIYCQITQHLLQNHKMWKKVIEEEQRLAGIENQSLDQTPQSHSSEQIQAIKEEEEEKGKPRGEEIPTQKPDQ

[8] = target: cGMP-inhibited 3',5'-cyclic phosphodiesterase 3A (Homo sapiens) (UniProt Q14432); assay: Inhibition of human recombinant PDE3A using cAMP as substrate at 10 uM after 30 mins by HTRF method
[9] = target: 3',5'-cyclic-AMP phosphodiesterase 4D (Homo sapiens) (UniProt Q08499); assay: Inhibition of human recombinant PDE4D using [3H]-cAMP as substrate at 1 uM after 30 mins by two-step radiometric assay
Sequence of 3',5'-cyclic-AMP phosphodiesterase 4D (Homo sapiens) (Q08499 whole entry): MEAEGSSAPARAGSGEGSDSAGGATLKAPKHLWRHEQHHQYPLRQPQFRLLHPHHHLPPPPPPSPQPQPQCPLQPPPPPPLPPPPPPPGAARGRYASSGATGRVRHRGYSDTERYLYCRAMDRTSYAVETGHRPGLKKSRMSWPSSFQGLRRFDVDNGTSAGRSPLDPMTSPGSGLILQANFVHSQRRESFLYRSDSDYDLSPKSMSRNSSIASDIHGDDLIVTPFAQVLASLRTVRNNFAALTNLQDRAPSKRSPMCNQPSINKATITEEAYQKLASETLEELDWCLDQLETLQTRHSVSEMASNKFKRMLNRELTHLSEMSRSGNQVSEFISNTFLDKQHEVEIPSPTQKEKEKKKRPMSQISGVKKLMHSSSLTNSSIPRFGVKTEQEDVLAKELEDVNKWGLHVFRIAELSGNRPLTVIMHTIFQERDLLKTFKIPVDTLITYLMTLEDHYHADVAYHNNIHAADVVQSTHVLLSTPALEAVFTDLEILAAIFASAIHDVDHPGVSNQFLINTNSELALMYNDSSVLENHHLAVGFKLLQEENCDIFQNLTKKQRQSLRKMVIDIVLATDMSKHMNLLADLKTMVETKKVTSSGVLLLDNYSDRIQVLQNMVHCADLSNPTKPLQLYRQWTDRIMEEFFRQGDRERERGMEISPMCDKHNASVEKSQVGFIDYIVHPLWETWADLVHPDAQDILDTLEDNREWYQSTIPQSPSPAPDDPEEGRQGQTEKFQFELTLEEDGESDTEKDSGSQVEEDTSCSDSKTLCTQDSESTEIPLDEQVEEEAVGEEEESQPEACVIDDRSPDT

[10] = target: 3',5'-cyclic-AMP phosphodiesterase 4D (Homo sapiens) (UniProt Q08499); assay: Inhibition of human recombinant PDE4D using [3H]-cAMP as substrate at 10 uM after 30 mins by two-step radiometric assay
[11] = target: cGMP-specific 3',5'-cyclic phosphodiesterase (Homo sapiens) (UniProt O76074); assay: Inhibition of human recombinant PDE5A using […] as substrate at 1 uM after 30 mins by scintillation proximity assay
[12] = target: cGMP-specific 3',5'-cyclic phosphodiesterase (Homo sapiens) (UniProt O76074); assay: Inhibition of human recombinant PDE5A using […] as substrate at 10 uM after 30 mins by scintillation proximity assay
[13] = target: High affinity 3',5'-cyclic-AMP phosphodiesterase 7A (Homo sapiens) (UniProt Q13946); assay: Inhibition of human recombinant PDE7A using [3H]-cAMP as substrate at 1 uM after 30 mins by two-step radiometric assay
Sequence of High affinity 3',5'-cyclic-AMP phosphodiesterase 7A (Homo sapiens) (Q13946 whole entry): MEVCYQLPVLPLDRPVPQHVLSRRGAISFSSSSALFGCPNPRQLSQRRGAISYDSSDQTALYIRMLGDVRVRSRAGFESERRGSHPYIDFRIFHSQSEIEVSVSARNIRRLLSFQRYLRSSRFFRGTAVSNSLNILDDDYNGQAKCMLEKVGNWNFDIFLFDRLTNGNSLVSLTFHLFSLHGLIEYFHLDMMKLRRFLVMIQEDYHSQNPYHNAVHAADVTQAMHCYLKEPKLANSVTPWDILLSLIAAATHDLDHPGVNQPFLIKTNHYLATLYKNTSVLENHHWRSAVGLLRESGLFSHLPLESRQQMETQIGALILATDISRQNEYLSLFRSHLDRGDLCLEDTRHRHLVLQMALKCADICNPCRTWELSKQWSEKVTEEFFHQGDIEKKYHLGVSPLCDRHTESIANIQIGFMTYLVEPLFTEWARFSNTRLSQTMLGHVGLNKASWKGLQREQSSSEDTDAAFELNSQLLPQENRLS

[14] = target: High affinity 3',5'-cyclic-AMP phosphodiesterase 7A (Homo sapiens) (UniProt Q13946); assay: Inhibition of human recombinant PDE7A using [3H]-cAMP as substrate at 10 uM after 30 mins by two-step radiometric assay
[15] = target: Dual 3',5'-cyclic-AMP and -GMP phosphodiesterase 11A (Homo sapiens) (UniProt Q9HCR9); assay: Inhibition of human recombinant PDE11A using [3H]-cAMP as substrate at 1 uM after 30 mins by two-step radiometric assay
[16] = target: Dual 3',5'-cyclic-AMP and -GMP phosphodiesterase 11A (Homo sapiens) (UniProt Q9HCR9); assay: Inhibition of human recombinant PDE11A using [3H]-cAMP as substrate at 10 uM after 30 mins by two-step radiometric assay
[17] = Metabolic stability in Wistar rat liver microsomes incubated for 10 mins prior to NADPH addition measured after 60 mins by LC/MS/MS analysis; assay type: ADME; details: read-out: Stability
[18] = Metabolic stability in CD1 mouse liver microsomes incubated for 10 mins prior to NADPH addition measured after 60 mins by LC/MS/MS analysis; assay type: ADME; details: read-out: Stability
[19] = Metabolic stability in Beagle dog liver microsomes incubated for 10 mins prior to NADPH addition measured after 60 mins by LC/MS/MS analysis; assay type: ADME, Canis lupus familiaris; details: read-out: Stability
[20] = Metabolic stability in cynomolgus monkey liver microsomes incubated for 10 mins prior to NADPH addition measured after 60 mins by LC/MS/MS analysis; assay type: ADME, Macaca fascicularis; details: read-out: Stability
[21] = Metabolic stability in human liver microsomes incubated for 10 mins prior to NADPH addition measured after 60 mins by LC/MS/MS analysis; assay type: ADME; details: read-out: Stability
Rattus norvegicus [22] = assay: Antipsychotic activity in Sprague-Dawley rat prepulse inhibition deficit model assessed as reversal of MK-801-induced effect at 1 mg/kg, ip administered 20 mins prior to MK-801 challenge relative to vehicle-treated control; assay type: functional; parameters: scale not given: the % may be the effect or the level left; details: route intraperitoneal
Rattus norvegicus [23] = assay: Antipsychotic activity in Sprague-Dawley rat […] assessed as reversal of MK-801-induced locomotion at 3 mg/kg, ip administered 2 hrs prior to MK-801 challenge measured every 5 mins for 1 hr starting 15 mins post MK-801 injection relative to vehicle-treated control; assay type: functional; details: route intraperitoneal
Rattus norvegicus [24] = assay: Antipsychotic activity in Sprague-Dawley rat […] assessed as reversal of MK-801-induced stereotypy at 3 mg/kg, ip administered 2 hrs prior to MK-801 challenge measured every 5 mins for 1 hr starting 15 mins post MK-801 injection relative to vehicle-treated control; assay type: functional; details: route intraperitoneal
Rattus norvegicus [25] = assay: Antipsychotic activity in Sprague-Dawley rat […] assessed as reversal of MK-801-induced ataxia at 3 mg/kg, ip administered 2 hrs prior to MK-801 challenge measured every 5 mins for 1 hr starting 15 mins post MK-801 injection relative to vehicle-treated control; assay type: functional; details: route intraperitoneal
Rattus norvegicus [26] = assay: Antipsychotic activity in Sprague-Dawley rat conditioned avoidance response model assessed as avoidance of shock at 3 mg/kg, ip measured after 30 mins relative to vehicle-treated control; assay type: functional; details: route intraperitoneal

Row | SMILES | inhibition [1] | pIC50 [2] | pIC50 [3] | pIC50 [4] | inhibition [5] | inhibition [6] | inhibition [7] | inhibition [8] | inhibition [9] | inhibition [10] | inhibition [11] | inhibition [12] | inhibition [13] | inhibition [14] | inhibition [15] | inhibition [16] | remaining at 1 h [17] | remaining at 1 h [18] | remaining at 1 h [19] | remaining at 1 h [20] | also measured
1 | Cn1cc(-c2ccc(Oc3ncccc3-c3ccncc3)cc2)c2ncc(Cl)cc21 | 95.4% | 8.59 | 8.15 | 8.17 | 12.3% | 12.6% | 0% | 0% | 3.5% | 6.9% | 2.4% | 3.1% | 10.5% | 17.5% | 8.5% | 3% | 64% | 67.1% | 54.7% | 54.5% | remaining at 1 h [21]: 80.9%
2 | Cc1nc2n(c(=O)c1CCN1CCC(c3noc4cc(F)ccc34)CC1)CCCC2 [RISPERIDONE] |  |  |  |  |  |  |  |  |  |  |  |  |  |  |  |  |  |  |  |  | Activity (Rattus norvegicus [22]): 67%
3 | Cn1cc(-c2ccncc2)c(-c2ccc(OCc3ccc4ccccc4n3)cc2)n1 [MARDEPODECT] |  |  |  |  |  |  |  |  |  |  |  |  |  |  |  |  |  |  |  |  | Activity (Rattus norvegicus [23]): 80%; Activity (Rattus norvegicus [24]): 32%; Activity (Rattus norvegicus [25]): 18%; Activity (Rattus norvegicus [26]): 96%

The next lines start with results.

Row | inhibition [1] | pIC50 [2] | pIC50 [3] | pIC50 [4] | inhibition [5] | inhibition [6] | inhibition [7] | inhibition [8] | inhibition [9] | inhibition [10] | inhibition [11] | inhibition [12] | inhibition [13] | inhibition [14] | inhibition [15] | inhibition [16] | remaining at 1 h [17] | remaining at 1 h [18] | remaining at 1 h [19] | remaining at 1 h [20] | SMILES | also measured
4 | 97.2% | 8.07 | 7.53 | 7.65 | 5.3% | 34.1% | 0.8% | 2.5% | 0% | 7.6% | 9.4% | 19.3% | 4% | 15.8% | 0.8% | 6.8% | 75% | 75.1% | 92% | 71% | Cn1cc(-c2ccc(Oc3nccnc3-c3ccncc3)cc2)c2nc3ccccc3cc21 | remaining at 1 h [21]: 96%
5 | 98.3% | 9.52 | 9.10 | 8.92 | 24.9% | 43% | 0.9% | 6.4% | 0% | 10.8% | 9.6% | 16.7% | 3.7% | 28.3% | 0.1% | 8.3% | 46.2% | 48.1% | 32.3% | 13.7% | Cc1cnc2c(-c3ccc(Oc4ncccc4-c4ccncc4)cc3)cn(C)c2c1 | remaining at 1 h [21]: 62.5%
